Four substances from US7893031B2, “Neuronal differentiation inhibitor peptide and use thereof” (Toagosei Co., Ltd., priority 2005, dated 2011) can be followed below.

This test concerns adipose stem cells procured from humans. Nature of the test: Evaluation of neuronal differentiation inhibitor activity of the synthetic peptides (immunostaining for MAPs and NeuN neuron markers, confocal laser microscopy). The test is classed as cell-based. As to conditions: culture of human adipose stem cells, 24 hours after peptide addition; for degree of neuronal differentiation (neuron markers MAPs and NeuN) when added together with VHL peptide: sample peptide added together with VHL peptide (comparative sample 1), each about 100 ng/mL. The method, then: Each sample obtained in example 1 was analyzed for the neuronal differentiation inhibitor activity.
In particular, each sample peptide together with the peptide of comparative sample 1 (hereinafter referred to as VHL peptide) was added to and incubated in a culture of adipose stem cells procured from humans. The addition concentration of each peptide was about 100 ng/mL. For comparison, a culture containing VHL peptide alone was incubated in a similar manner.
At 24 hours after peptide addition, evaluation was carried out by a standard immune antibody procedure. Specifically, MAPs ([…]) and NeuN (neuronal nuclei) were added as neuron markers, and the degree of neuronal differentiation was evaluated by confocal laser microscopy. MAPs is a marker that can stain (detect) broadly, from relatively immature neurons to mature neurons. NeuN is a marker that can specifically stain (detect) mature neurons.

No end group written: not given here.

Turning to “YARAAARQARA-SLQTLCEISLMRNHS (YARAAARQARASLQTLCEISLMRNHS; not fully specified (C-terminus); printed as YARAAARQARA-SLQTLCEISLMRNHS) [Sample 3, PTD4 domain plus 15 N-terminal residues of the BC-box of S. cerevisiae elongin-A]”, the “degree of neuronal differentiation (neuron markers MAPs and NeuN) when added together with VHL peptide” value is on record as “no significant neuronal differentiation was observed”.
Still for that read-out and setting: the entry for “YARAAARQARA-TLHQQCIRVLKNNID (YARAAARQARATLHQQCIRVLKNNID; not fully specified (C-terminus); printed as YARAAARQARA-TLHQQCIRVLKNNID) [Sample 1, PTD4 domain plus 15 N-terminal residues of the BC-box of human elongin-A]” is “no significant neuronal differentiation was observed”.
Regarding “YARAAARQARA-TLKERCLQVVRSLVK (YARAAARQARATLKERCLQVVRSLVK) [VHL peptide, reference compound]”, the “degree of neuronal differentiation (neuron markers MAPs and NeuN)” value (VHL peptide alone, about 100 ng/mL) is given as “significant neuronal differentiation”.
“YARAAARQARA-TLVSLCQTVLMSHID (YARAAARQARATLVSLCQTVLMSHID; not fully specified (C-terminus); printed as YARAAARQARA-TLVSLCQTVLMSHID) [Sample 2, PTD4 domain plus 15 N-terminal residues of the BC-box of C. elegans elongin-A]”: the “degree of neuronal differentiation (neuron markers MAPs and NeuN) when added together with VHL peptide” value is reported as “no significant neuronal differentiation was observed”.
